Data published in US20030159159A1, “Human nerve growth factor exon 1 and exon 3 promoters” (priority 1997, published 2003).

Assays:
[1] = test system: primary glial cells; settings: cited from earlier work
[2] = test system: ROS 17/2.8 osteoblastic cells; settings: cited from earlier work
[3] = test system: mouse L929 fibroblasts; settings: cited from earlier work
[4] = test system: wild type cells; assay: G418 concentration curve on wild type cells; assay type: cell-based; settings: in 13 days
Protocol: Since geneticin (G418) resistance would be used as a selection tool, a G418 concentration curve was done and it was determined that 600 μg/ml was the minimum concentration G418 necessary to kill all the wild type cells in 13 days.

[5] = test system: human nerve growth factor exon 3 promoter (pGL3Ex3) in UC11 cells; assay: Luciferase assay, UC11 stable cell line with pGL3Ex3 (human NGF exon 3 promoter); assay type: cell-based; settings: serum deprivation 48-56 hours, 18 hr treatment: serum 10% horse serum, PMA 1 μM, calcitriol 10 nM, mean ± SEM, 1 cell line n = 11-17, read-out: Fold induction over vehicle controls without serum (luciferase), UC11 Human Exon 3
Description: (§1) DNA for the human nerve growth factor exon 3 clones was originally identified by PCR screening a human P1 genomic library (clone 0095-B8, Genome Systems). A ˜6600 bp fragment containing exon 3 was cloned into a pBS SK+ vector to yield the plasmid identified as pBSEx3. A 4329 bp fragment was isolated from the insert in pBSEx3 and subcloned into a pGL2 enhancer vector (Promega) and a pGL3 basic vector (Promega) to yield clones identified as pGL2Ex3 and pGL3Ex3, respectively. The pGL2Ex3 was transfected into mouse L929 cells and the pGL3Ex3 vector was transfected into human UC11 cells to generate the data in Table 1.
UC11 human astrocytoma cells (Liwnicz, et. al. 1986) were grown in RPMI 1640 containing 10% fetal bovine serum, 20 mM HEPES, penicillin (50 μg/ml), streptomycin (50 μg/ml), neomycin (100 μg/ml), and glutamine (1 mM). Cells were maintained at 37° C. in 5% CO2, fed every 3-4 days and passaged once per week. […]
(§2) Cells were plated at 5,000 cells/well in 96 well dishes in serum containing media described above. […] Cells were treated with 1 μM PMA, 10 nM calcitriol or 10% horse serum and luciferase activity was determined 18 hours later using a Promega kit (catalog #E1500). […] Luciferase activity was detected in a MicroLumat LB 96 P luminometer (Wallac Inc, Gaithersburg, Md.) for 10 seconds following automatic injection of 100 μl 470 μM luciferin.

[6] = test system: human nerve growth factor exon 1 promoter KS (pNE1KS) in L929 cells; assay: Luciferase assay, L929 stable cell lines with pNE1KS (human NGF exon 1 promoter KS); assay type: cell-based; settings: serum deprivation 48-56 hours, 18 hr treatment: serum 10% horse serum, PMA 1 μM, calcitriol 10 nM, mean ± SEM, 6 cell lines in duplicate, read-out: Fold induction over vehicle controls without serum (luciferase), L929 Mouse Exon 1 KS
Description: (§3) DNA for the human nerve growth factor exon 1 clones was originally identified by PCR screening a human P1 genomic library (clone 1226-G9, Genome Systems). A ˜14,000 bp fragment containing exon 1 was cloned into a pBS SK+ vector to yield the plasmid identified as pBSEx1. Two overlapping fragments were isolated from the insert in pBSEx1 and subcloned into a pGL3neo vector. The largest construct containing human nerve growth factor exon 1 is 2846 bp and is identified as pNE1KS. The second subclone from pBSEx1, identified as pNE1KE, contains the same 5′ end as pNE1KS and is truncated on the 3′ end in exon 1, resulting in an insert that is 2234 bp. pNE1KS and pNE1KE were transfected into mouse L929 cells and human UC 11 cells to generate the data in Table 1. […]
as §2

[7] = test system: human nerve growth factor exon 1 promoter KS (pNE1KS) in UC11 cells; assay: Luciferase assay, UC11 stable cell lines with pNE1KS (human NGF exon 1 promoter KS); assay type: cell-based; settings: serum deprivation 48-56 hours, 18 hr treatment: serum 10% horse serum, PMA 1 μM, calcitriol 10 nM, mean ± SEM, 6 cell lines in triplicate, read-out: Fold induction over vehicle controls without serum (luciferase), UC11 Human Exon 1 KS
Description: as §3, §2

[8] = test system: human nerve growth factor exon 3 promoter (pGL2Ex3) in L929 cells; assay: Luciferase assay, L929 stable cell line with pGL2Ex3 (human NGF exon 3 promoter); assay type: cell-based; settings: serum deprivation 48-56 hours, 18 hr treatment: serum 10% horse serum, PMA 1 μM, calcitriol 10 nM, mean ± SEM, 1 cell line n = 11-17, read-out: Fold induction over vehicle controls without serum (luciferase), L929 Mouse Exon 3
Description: as §1
L929 mouse fibroblast cells (ATCC, Rockville, Md.) were grown in Dulbecco's modified Eagle's medium (DMEM) containing 10% horse serum, penicillin (50 μg/ml), streptomycin (50 μg/ml), neomycin (100 μg/ml), and glutamine (1 mM). Cells were maintained at 37° C. in 5% CO2, fed every 3-4 days and passaged once per week. […]
as §2

[9] = test system: human nerve growth factor exon 1 promoter KE (pNE1KE) in L929 cells; assay: Luciferase assay, L929 stable cell lines with pNE1KE (human NGF exon 1 promoter KE); assay type: cell-based; settings: serum deprivation 48-56 hours, 18 hr treatment: serum 10% horse serum, PMA 1 μM, calcitriol 10 nM, mean ± SEM, 6 cell lines in duplicate, read-out: Fold induction over vehicle controls without serum (luciferase), L929 Mouse Exon 1 KE
Description: as §3, §2

[10] = test system: human nerve growth factor exon 1 promoter KE (pNE1KE) in UC11 cells; assay: Luciferase assay, UC11 stable cell lines with pNE1KE (human NGF exon 1 promoter KE); assay type: cell-based; settings: serum deprivation 48-56 hours, 18 hr treatment: serum 10% horse serum, PMA 1 μM, calcitriol 10 nM, mean ± SEM, 6 cell lines in triplicate, read-out: Fold induction over vehicle controls without serum (luciferase), UC11 Human Exon 1 KE
Description: as §3, §2

SMILES: CCCCCCCCCCCCCC(=O)O[C@@H]1[C@@H](C)[C@@]2(O)[C@@H](C=C(CO)C[C@]3(O)C(=O)C(C)=C[C@@H]23)[C@@H]2C(C)(C)[C@]12OC(C)=O [PMA, phorbol 12-myristate 13-acetate]
- effect on synthesis of NGF [1]: enhances the synthesis of NGF
- effect on NGF expression [2]: suppresses expression
- effect on synthesis of NGF [3]: enhances the synthesis of NGF

SMILES: CN[C@@H]1[C@@H](O)[C@@H](O[C@@H]2[C@@H](O)[C@H](O[C@H]3O[C@H]([C@@H](C)O)[C@@H](O)[C@H](O)[C@H]3N)[C@@H](N)C[C@H]2N)OC[C@]1(C)O [G418, geneticin]
- minimum concentration G418 necessary to kill all the wild type cells [4]: 600 µg/mL

SMILES: C=C1/C(=C\C=C2/CCC[C@]3(C)[C@@H]([C@H](C)CCCC(C)(C)O)CC[C@@H]23)C[C@@H](O)C[C@@H]1O [CALCITRIOL, calcitriol]
- fold induction at 0.01 µM [5]: 0.98
- fold induction at 0.01 µM [6]: 0.67
- fold induction at 0.01 µM [7]: 0.86 ± 0.03
- fold induction at 0.01 µM [8]: 0.73
- fold induction at 0.01 µM [9]: 0.71
- fold induction at 0.01 µM [10]: 1.01 ± 0.23
